US20210392882A1, “METHODS AND COMPOSITIONS FOR IMPROVED INSECT REPELLENCY” (Board of Trustees of Michigan State University, priority 2020, published 2021)

Test system: sst-1 sensilla (sst-1A and sst-1B neurons)
Assay: Single sensillum recording (SSR) of antennal sst-1 sensilla
Format: cell-based, Aedes aegypti
Settings: wild-type ROCK; pyrethrum at 10^−2
Method: Single sensilla recording was conducted as described in Liu et al. J Insect Physiol 59, 1169-1177 (2013). Female mosquitoes 4 days after eclosion were anaesthetized (2-3 min on ice) and mounted on a microscope slide (76×26 mm). An antenna was fixed using a double-sided tape to a cover slip resting on a small ball of dental wax to facilitate manipulation. The cover slip was placed at an appropriate angle to the mosquito head. Once mounted, the specimen was placed under a microscope (Nikon SMA645, Japan) and the antenna viewed at a high magnification (1000×). Two tungsten microelectrodes were sharpened in 10% KNO2 at 2-10 V. The reference electrode, which was connected to ground, was inserted into the compound eye of the mosquito and the other was connected to the preamplifier (10×, Syntech, Kirchzarten, Germany) and inserted into the shaft of an olfactory sensillum to complete the electrical circuit to extracellularly record olfactory receptor neuron potentials (Den Otter et al., Journal of Insect Physiology 26, 465-472 (1980)). Controlled manipulation of the electrodes was performed using a micromanipulator (Burleigh PCS-6000, CA). The preamplifier was connected to an analog-to-digital signal converter (IDAC-4, Syntech, Germany), which in turn was connected to a computer for signal recording and visualization. The activity of co-located olfactory receptor neurons in each sensillum was assessed based on the differences in spike amplitude. The large spike amplitude was designated as cell A and the olfactory receptor neuron with the small spike amplitude was designated cell B (Ghaninia et al. Eur J Neurosci 26, 1611-1623 (2007)). Signals were recorded for 10 seconds starting 1 second before stimulation, and the action potentials were counted off-line over a 500-ms period before and after stimulation. The spontaneous firing rates observed in the preceding 500 milliseconds (ms) were subtracted from the total spike rates observed during the 500-ms stimulation, and counts were recorded in units of spikes/second.
Eighteen compounds besides pyrethrum from different chemical classes were selected for functional classification of olfactory sensilla with various morphological shapes (Extended Data FIG. 2). Each compound was diluted in dimethyl sulfoxide (DMSO) to a stock solution with a concentration of 100 μg/μl. Subsequently, a series of 10-fold dilutions were made from each of the stock solutions for each compound tested. For each dilution, a 10 μl portion was dispersed onto a filter paper strip (4×10 mm), which was then inserted into a Pasteur pipette to create the stimulus cartridge. A sample containing the solvent alone served as control. The airflow across the antennae was maintained constant at a 20 ml/second throughout the experiment. Purified and humidified air was delivered to the preparation through a glass tube (10-mm inner diameter) perforated by a small hole 10 cm away from the end of the tube, into which the tip of the Pasteur pipette could be inserted. The stimulus was delivered to the sensilla by inserting the tip of the stimulus cartridge into this hole and diverting a portion of the air stream (0.5 l/min) to flow through the stimulus cartridge for 500 ms using a stimulus controller (Syntech, Germany). The distance between the end of the glass tube and the antennae was ≤1 cm. The number of spikes/second was obtained by averaging the results for each sensillum/compound combination.
To identify which mosquito olfactory receptor neuron(s) responds to pyrethrum, single sensillum recordings (SSR) were performed of Ae. aegypti antennal olfactory sensilla in response to a panel of odorants (FIG. 2C-2L), most of which are plant-derived mosquito repellents, such as pyrethrum, (±)-citronellal, geranyl acetate and (−)-borneol. Three responsive sst sensilla were identified, sst1-3, and six responsive sbt sensilla, sbt1-6, based on their response profiles to the odorants in the panel (FIG. 2B, 2D-2L).

## CC1(C)C2CCC1(C)C(O)C2 (single isomer, unassigned; (-)) [(−)-borneol]
  response of sst-1A neuron: activates
